Laboratory results taken from patent EP4803159A2, “CONJUGATE OF SALICYLIC ACID AND PEPTIDE” (Caregen Co., Ltd., priority 2017, dated 2018).

Experiments:
[1] = distilled water, concentration of 10 mg/ml; FIG. 1
[2] = system: TNF-a, IL-6, IL-1b, and COX-2; assay: Anti-inflammatory effect, Propionibacterium acnes-induced inflammatory cytokine mRNA expression in keratinocytes (RT-PCR); type: cell-based; details: keratinocyte, 50 µg/ml Propionibacterium acnes, 50 µM compound, 24 hours; FIG. 8
Description: Anti-inflammatory effects of the compounds of the present disclosure were examined using Propionibacterium acnes. To this end, keratinocyte was seeded in a 6-well plate at a density of 300,000 cells per well, and then incubated in a DMEM culture medium (Gibco, USA) containing 10% FBS for 24 hours under conditions of 37°C and 5% CO2. After replacing the medium by a fresh medium, the cells were treated with 50 µg/ml of Propionibacterium acnes, and then the treated Propionibacterium acnes was treated with each 50 µM of the compound 1 and the compound 3 of the present disclosure and salicylic acid used as the positive control, followed by incubation for 24 hours under the same conditions as above. RNA was isolated from the cells, and cDNA was synthesized using a cDNA synthesis kit (Intron, Korea). PCR premix (Intron, Korea) and primers for each of TNF-a, IL-6, IL-1b, and COX-2 in Table 3 below were used to perform PCR. mRNA levels of TNF-a, IL-6, IL-1b and COX-2 were determined by 5% agarose gel electrophoresis.

[3] = system: HaCaT keratinocyte cell line; assay: Keratinocyte growth, sulforhodamine B (SRB) colorimetric assay; type: cell-based; details: 50 µM, 72 hours, serum-free medium, SRB absorbance at 560 nm, FIG. 2B
Description: To analyze growth factor-like efficacy and inhibitory efficacy of the compounds synthesized in Example <1-2>, a sulforhodamine B (SRB Sigma) colorimetric assay was performed using a HaCaT keratinocyte cell line (Korean Cell Line Bank) in accordance with a method of Rizzino, et al. (Cancer Res. 48:4266(1988))
HaCaT keratinocyte cell line was seeded in a 96-well plate at a density of 3,000 cells per well, and then cultured in Dulbecco's modified Eagle's medium (DMEM, Gibco, USA) containing 10% fetal bovine serum (FBS, Sigma) for 24 hours under conditions of 37°C and 5% CO2. The cultured cell line was detached from the bottom of the culture plate using a 1% trypsin solution, and only cell precipitate was collected by centrifugation. The cell precipitate was suspended in DMEM without FBS, and then cultured for 24 hours under conditions of 37°C and 5% CO2. 24 hours later, the medium was replaced by the same medium from which serum was completely removed. A blank sample in which the cell precipitate was dissolved sterile in 10% DMSO was prepared for standardization. Each of the compound 1 to the compound 4 (50 µM) of the present disclosure, salicylic acid (50 µM), and EGF (100 nM) as a positive control were treated. Incubation was carried out under the same conditions as above for 72 hours. […] Absorbance at UV 560 nm was measured to determine cell viability.

SMILES: O=C(O)c1ccccc1O [salicylic acid, 2-hydroxybenzoic acid]
- solubility in water [1]: hardly dissolved in water
- expression of inflammatory cytokines induced by Propionibacterium acnes [2]: hardly inhibited expression
- growth of keratinocytes [3]: inhibited growth of keratinocytes due to toxicity
